Reference: patent publication US4636500A, “N-(phenoxyalkyl)imidazoles as selective inhibitors of the thromboxane synthetase enzyme and pharmaceutical compositions thereof” (Pfizer Inc., priority 1978, dated 1987)
Counter-ions that a name gives are not always drawn.

What was measured:
prostacyclin synthetase [1] = target: T1, prostacyclin synthetase (Sus scrofa, UniProt A0A5G2QT35); conditions: pig aorta microsomes; pre-incubation of the enzyme; literature; cited from earlier work
T1 construct: Pig aorta microsomes; from tissue; host or cells: pig aorta microsomes
T1 sequence (A0A5G2QT35 1-497): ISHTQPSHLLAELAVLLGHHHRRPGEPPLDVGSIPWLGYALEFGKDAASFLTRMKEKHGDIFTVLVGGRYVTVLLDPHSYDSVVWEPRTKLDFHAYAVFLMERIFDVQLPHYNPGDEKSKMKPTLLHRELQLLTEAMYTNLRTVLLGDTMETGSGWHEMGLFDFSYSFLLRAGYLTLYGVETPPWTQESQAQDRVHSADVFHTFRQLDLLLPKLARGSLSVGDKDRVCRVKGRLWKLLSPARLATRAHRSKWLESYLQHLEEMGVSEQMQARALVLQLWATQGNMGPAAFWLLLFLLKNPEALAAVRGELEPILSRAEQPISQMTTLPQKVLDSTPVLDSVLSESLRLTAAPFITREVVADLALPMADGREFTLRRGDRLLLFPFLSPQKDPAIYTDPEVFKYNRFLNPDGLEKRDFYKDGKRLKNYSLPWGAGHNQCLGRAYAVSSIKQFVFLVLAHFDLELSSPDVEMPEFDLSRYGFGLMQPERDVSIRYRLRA

thromboxane synthetase = target: T2, thromboxane synthetase (Homo sapiens, UniProt P24557); assay: Thromboxane A2 (TxA2) synthetase inhibition; Indomethacin pretreated human platelet microsomes, rabbit aorta superfusion bioassay; assay type: biochemical; conditions: for IC50: human platelet microsomes, 5 min pre-incubation, read-out: Molar concentration causing 50% inhibition of (1) thromboxane synthetase; for Ratio of (3) to (1): prostacyclin synthetase / thromboxane synthetase 50% inhibition concentrations
T2 construct: human platelet microsomes; from tissue; host or cells: human blood platelets (indomethacin-pretreated), microsomes
T2 sequence (P24557 1-533): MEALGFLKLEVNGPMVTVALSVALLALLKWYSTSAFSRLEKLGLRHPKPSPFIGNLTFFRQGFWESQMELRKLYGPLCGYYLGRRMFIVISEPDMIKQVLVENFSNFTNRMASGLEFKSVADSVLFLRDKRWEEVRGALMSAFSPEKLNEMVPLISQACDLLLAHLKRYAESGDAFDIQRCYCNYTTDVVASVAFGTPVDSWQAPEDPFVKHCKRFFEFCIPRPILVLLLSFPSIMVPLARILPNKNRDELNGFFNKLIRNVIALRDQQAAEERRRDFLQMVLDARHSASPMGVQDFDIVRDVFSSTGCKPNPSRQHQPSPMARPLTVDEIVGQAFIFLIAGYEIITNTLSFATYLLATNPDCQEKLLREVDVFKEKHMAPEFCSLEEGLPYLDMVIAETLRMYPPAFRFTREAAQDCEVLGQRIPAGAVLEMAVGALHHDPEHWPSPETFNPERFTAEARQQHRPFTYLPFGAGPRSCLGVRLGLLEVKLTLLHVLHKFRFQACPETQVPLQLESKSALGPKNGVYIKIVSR
Procedure: Indomethacin pretreated human platelet microsomes (Science 1976, 193, 163) are incubated (2 min.: 0° C.) with PGH2 (produced as in 1) and aliquots of the reaction mixture superfused over two rabbit aorta spirals which are separated by a delay coil (2 min.). The latter is required to allow the selective decay of the more unstable thromboxane A2 (Proc. Nat. Acad. Sci. 1975, 72, 2994) thereby enabling the separate measurement of increased isometric tension due to the TxA2 formed and the PGH2 remaining. The test compound is pre-incubated with the enzyme for 5 minutes, and its ability to inhibit the thromboxane synthetase enzyme is measured as its reduction of the TxA2 component of the isometric tension.

prostacyclin synthetase [2] = target: T1, prostacyclin synthetase; assay: Prostacyclin (PGI2) synthetase inhibition; pig aorta microsomes, rabbit aorta strip bioassay; assay type: biochemical; conditions: 5 min pre-incubation, read-out: Molar concentration causing 50% inhibition of (3) prostacyclin synthetase
Procedure: The effect of the compounds of the formula (I) on the thromboxane synthetase enzyme, and the prostacyclin synthetase and cyclo-oxygenase enzymes has been measured by the following in vitro enzyme assays:
Pig aorta microsomes (Nature, 1976, 263, 663) are incubated (30 sec.; 22° C.) with PGH2 produced as in 1) and aliquots bio-assayed as in 1. […] The test compound is then pre-incubated with the enzyme for 5 minutes, and its ability to prevent the decrease in tension is measured.
The results of these tests are shown in the following Table, which gives the molar concentration of each compound which caused a 50% change in the effect of the relevant enzyme on isometric tension, i.e. caused a 50% inhibition of the action of that enzyme.

cyclo-oxygenase = target: T3, cyclo-oxygenase (Ovis aries, UniProt P05979); assay: Cyclo-oxygenase inhibition; ram seminal vesicle microsomes, rabbit aorta strip bioassay; assay type: biochemical; conditions: 5 min pre-incubation, read-out: Molar concentration causing 50% inhibition of (2) cyclo-oxygenase
T3 construct: Ram seminal vesicle microsomes; from tissue; host or cells: ram seminal vesicle microsomes
T3 sequence (P05979 25-600): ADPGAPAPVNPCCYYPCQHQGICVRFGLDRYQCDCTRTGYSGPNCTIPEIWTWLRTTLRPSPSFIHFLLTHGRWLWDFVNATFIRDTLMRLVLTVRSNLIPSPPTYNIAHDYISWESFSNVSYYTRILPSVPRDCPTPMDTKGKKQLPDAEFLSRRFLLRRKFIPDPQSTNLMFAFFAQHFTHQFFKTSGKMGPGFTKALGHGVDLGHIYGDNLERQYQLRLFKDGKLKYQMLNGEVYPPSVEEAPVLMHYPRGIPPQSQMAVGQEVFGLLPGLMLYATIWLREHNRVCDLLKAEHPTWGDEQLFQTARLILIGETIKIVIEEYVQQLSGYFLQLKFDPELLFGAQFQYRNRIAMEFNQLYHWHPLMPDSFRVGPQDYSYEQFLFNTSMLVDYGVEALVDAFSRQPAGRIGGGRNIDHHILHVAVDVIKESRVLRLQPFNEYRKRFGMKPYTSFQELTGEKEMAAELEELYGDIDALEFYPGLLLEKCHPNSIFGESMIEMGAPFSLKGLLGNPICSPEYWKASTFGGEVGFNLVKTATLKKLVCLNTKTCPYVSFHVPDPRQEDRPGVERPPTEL
Procedure: Ram seminal vesicle microsomes(Biochemistry, 1971, 10, 2372) are incubated with arachidonic acid (100 μM: 1 min.: 22°) to produce PGH2 and aliquots of the reaction mixture injected into a stream of Krebs-bicarbonate at 37° C. (containing a mixture of antagonists (Nature, […], 218, 1135) and indomethacin (Brit. J. Pharmacol., 1972, 45, 451) which is superfusing a spirally-cut rabbit aorta strip (Nature, 1969, 223, 29). The ability of a compound to inhibit the enzyme is measured by comparing the increases in isometric tension produced by PGH2 in the absence of the test compound, and following pre-incubation of the enzyme with the test compound for 5 minutes.

[3] = system: human blood platelet aggregation; assay: in vitro inhibition of human blood platelet aggregation; assay type: cell-based; conditions: human platelets, qualitative
From the text: In addition to the above as in vitro assay for measuring the inhibition of human blood platelet aggregation has been described and this may be predictive of anti-thrombotic efficacy clinically (Lancet (ii), 1974, 1223; J. Exp. Med., 1967, 126, 171).

rabbits = conditions: intravenous arachidonic acid, literature; cited from earlier work
cyclo-oxygenase enzyme = conditions: background statement; cited from earlier work
[4] = system: human blood platelet aggregation; conditions: human blood platelets; literature; cited from earlier work
aggregation of platelets = conditions: rat abdominal aorta, in vivo; literature; cited from earlier work

| SMILES | IC50 (thromboxane synthetase) [µM] | Ratio of (3) to (1) (thromboxane synthetase) | IC50 (prostacyclin synthetase [2]) [µM] | also measured |
| --- | --- | --- | --- | --- |
| CCCCCC(/C=C/C=C\C/C=C\C/C=C\CCCC(=O)O)OO (stereo not shown) [15-hydroperoxy-arachidonic acid] | – | – | – | prevention of the decrease in PGH2-induced tension (PGI2 synthetase inhibition) (prostacyclin synthetase [1]): prevented completely |
| NC(=O)c1ccc(OCCn2ccnc2)cc1 [Example 1, 1-[2-(4-Carbamoylphenoxy)ethyl]imidazole] | 0.022 | > 4,500 | > 100 | IC50 (cyclo-oxygenase): > 100 µM |
| NC(=O)c1ccccc1OCCn1ccnc1 [Example 2] | 10 | – | – | – |
| NC(=O)Cc1ccc(OCCn2ccnc2)cc1 [Example 3] | 1 | – | – | – |
| CCOC(=O)c1ccccc1OCCn1ccnc1 [Example 4, 1-[2-(2-ethoxycarbonyl-phenoxy)ethyl]imidazole] | 0.04 | > 2,500 | > 100 | – |
| CCOC(=O)Cc1cccc(OCCn2ccnc2)c1 [Example 7] | 0.046 | 2,200 | 100 | – |
| O=C(O)c1ccc(OCCn2ccnc2)cc1 [Example 16, 1-[2-(4-Carboxyphenoxy)ethyl]imidazole] | – | – | > 100 | preventing human blood platelet aggregation [3]: effective in preventing human blood platelet aggregation |
| CC(=O)Oc1ccccc1C(=O)O [aspirin] | – | – | – | protect the rabbit from the lethal effect of the injection (rabbits): protect the rabbit from the lethal effect of the injection; inhibition of the cyclo-oxygenase enzyme (cyclo-oxygenase enzyme): inhibit the cyclo-oxygenase enzyme; inhibitory activity in vitro against a variety of aggregating agents [4]: show inhibitory activity in vitro against a variety of aggregating agents |
| O=C1C(CC[S+]([O-])c2ccccc2)C(=O)N(c2ccccc2)N1c1ccccc1 (stereo not shown) [sulphinpyrazone] | – | – | – | prevent the aggregation of platelets in an extra corporeal loop (aggregation of platelets): prevent the aggregation of platelets in an extra corporeal loop of the abdominal aorta of rats in vivo; protect the rabbit from the lethal effect of the injection (rabbits): protect the rabbit from the lethal effect of the injection; inhibitory activity in vitro against a variety of aggregating agents [4]: show inhibitory activity in vitro against a variety of aggregating agents |

Now from value to compound, other results behind:

| IC50 (thromboxane synthetase) [µM] | Ratio of (3) to (1) (thromboxane synthetase) | IC50 (prostacyclin synthetase [2]) [µM] | SMILES | also measured |
| --- | --- | --- | --- | --- |
| 0.034 | > 2,900 | > 100 | CCOC(=O)Cc1ccc(OCCn2ccnc2)cc1 [Example 8] | – |
| 34 | – | – | O=C(O)c1ccccc1OCCn1ccnc1 [Example 17, 1-[2-(2-Carboxyphenoxy)ethyl]imidazole Hydrochloride] | – |
| 0.0042 | – | – | O=C(O)COc1ccc(OCCn2ccnc2)cc1 [Example 18, 4-[2-(1-Imidazolyl)ethoxy]phenoxyacetic acid Hydrochloride] | – |
| 0.58 | – | – | O=C(O)Cc1ccccc1OCCn1ccnc1 [Example 19, 2-[2-(1-Imidazolyl)ethoxy]phenylacetic acid Hydrochloride] | – |
| 0.012 | – | – | O=C(O)c1cccc(OCCn2ccnc2)c1 [Example 21, 1-[2-(3-Carboxyphenoxy)ethyl]imidazole Hydrochloride] | – |
| 0.0049 | – | – | c1cn(CCOc2ccc(-c3nnn[nH]3)cc2)cn1 [Example 22, 1-[2-(4-Tetrazol-5-ylphenoxy)ethyl]imidazole] | – |
| 0.016 | – | – | NC(=O)COc1ccc(OCCn2ccnc2)cc1 [Example 23, 4-[2-(1-Imidazolyl)ethoxy]phenoxyacetamide] | – |
| 0.005 | > 20,000 | > 100 | CNC(=O)c1ccc(OCCn2ccnc2)cc1 [Example 24, 1-[2-(4-N-Methylcarbamoylphenoxy)ethyl]imidazole] | IC50 (cyclo-oxygenase): > 100 µM |
| 0.0056 | > 18,000 | > 100 | CN(C)C(=O)c1ccc(OCCn2ccnc2)cc1 [Example 25, 1-[2-(4-N,N-Dimethylcarbamoylphenoxy)ethyl]imidazole] | IC50 (cyclo-oxygenase): > 100 µM |
| 10 | – | – | O=C(c1ccc(OCCn2ccnc2)cc1)N1CCOCC1 [Example 26, 1-[4-(2-Imidazol-1-yl)ethoxybenzoyl]morpholine] | – |
| 6.6 | – | – | NC(=O)Cc1ccccc1OCCn1ccnc1 [Example 39, 1-[2-(2-Carbamoylmethylphenoxy)ethyl]imidazole] | – |
